Results as given in US20150246908A1, “KLF5 MODULATORS” (The Scripps Research Institute, priority 2012, published 2015).
In brackets after ≈: the same amount, converted by molar mass. Entries after “also recorded” stand apart in the source; their conditions may differ. Where two headings read alike, the source gives them in different places.

Experiments:
[1] = test system: KLF5 protein; assay: KLF5 protein levels by Western blot in colon cancer cell lines; assay type: cell-based
Source text: The chemical structure of this compound is described using Formula (I) in which R^1=(E)-2-(3-chlorophenyl)ethenyl, R^2═H, R^3=4-tetrahydro-2H-thiopyran 1,1-dioxide, R^4=Me, X═NH, Y=absent).

[2] = Stability in PBS; assay type: physicochemical; details: read-out: Stability (t1/2) in PBS
[3] = test system: HCT-116 (colon); assay: Tumor cell line potency, HCT-116; assay type: cell-based
[4] = test system: non-small cell lung cancer line NCI-H322M; assay: NCI60 cytotoxicity, NCI-H322M; assay type: cell-based; details: high KLF5 mRNA level
Source text: (§1) Moreover, cytotoxicity in general trends with KLF5 levels in the tumor types. […] Only the colon cancer cell line KM12, the ovarian cancer line IGROV1, and the non-small cell lung cancer line NCI-H322M are the NCI60 cell lines high with respect to KLF5 mRNA levels that are ML264-insensitive.

[5] = test system: DLD-1 cell line; assay: DLD-1 cell viability; assay type: cell-based; details: for EC50: cell viability, footnote calls it IC50 cell viability
[6] = Solubility measured at Scripps; assay type: physicochemical; details: aqueous buffer
[7] = test system: ovarian cancer line IGROV1; assay: NCI60 cytotoxicity, IGROV1; assay type: cell-based; details: IGROV1, high KLF5 mRNA level
Source text: as §1

[8] = test system: 67 protein targets of therapeutic and/or toxicological interest (GPCRs, ion channels, enzymes, etc.); assay: Off-target activity vs. 67 protein targets
[9] = test system: HT29 (colon); assay: Tumor cell line potency, HT29; assay type: cell-based
[10] = test system: SW-620 (colon); assay: Tumor cell line potency, SW-620; assay type: cell-based
[11] = test system: 47 kinases; assay: Off-target activity vs. 47 kinases; assay type: biochemical
[12] = test system: colon cancer cell line KM12; assay: NCI60 cytotoxicity, KM12; assay type: cell-based; details: KM12, high KLF5 mRNA level
Source text: as §1

[13] = Michael acceptor test, incubation with GSH, LCMS; assay type: physicochemical; details: by LCMS after incubation with 100 μM GSH
[14] = test system: human KLF5 promoter; assay: KLF5 promoter luciferase assay in DLD-1/pGL4.18KLF5p cell line; assay type: cell-based; details: measuring luciferase activity
[15] = Homo sapiens, DLD-1, DlD-1 4.9 cell line

Row | IC50 [14, 15] [µM] | Structure (SMILES) | other results
1 | – | CN(C(=O)CNC(=O)/C=C/c1cccc([N+](=O)[O-])c1)C1CCS(=O)(=O)C1 (stereo not shown) [CID46931037] | effect on KLF5 protein levels [1]: lesser effects on KLF5 expression than ML264
2 | – | CN(C(=O)COC(=O)/C=C/c1cccc([N+](=O)[O-])c1)C1CCS(=O)(=O)C1 (stereo not shown) [CID 5951923] | effect on KLF5 protein levels [1]: lesser effects on KLF5 expression than ML264
3 | – | CN(C(=O)CNC(=O)/C=C/c1cccc(Cl)c1)C1CCS(=O)(=O)CC1 [Compound 1, (E)-3-(3-chlorophenyl)-N-(2-((1,1-dioxidotetrahydro-2H-thiopyran-4-yl)(methyl)amino)-2-oxoethyl)acrylamide] | half-life [2]: > 48 h; effect on cell type ([3]; HCT116, submicromolar doses): significant effects at submicromolar doses; IC50 ([3]; Homo sapiens, HCT-116 (colon)): 0.56 µM; sensitivity to cytotoxicity [4]: ML264-insensitive; maximal effect on DLD-1 viability [5]: > 90%; IC50 ([5]; Homo sapiens, DLD1 (colon), viability): 0.029 µM; EC50 ([5]; Homo sapiens): 0.022 µM; solubility ([6]; PBS, read-out: Solubility in PBS): 18.7 µM (≈ 7.2 µg/mL); solubility ([6]; assay buffer, read-out: Solubility in assay buffer): 35 µM (≈ 13.5 µg/mL); sensitivity to cytotoxicity [7]: ML264-insensitive; inhibition at 10 μM vs. 67 protein targets [8]: < 50%; effect on cell type ([9]; HT29, submicromolar doses): significant effects at submicromolar doses; IC50 ([9]; Homo sapiens, HT-29, HT29 (colon)): 0.13 µM; IC50 ([10]; Homo sapiens, SW-620 (colon)): 0.43 µM; effect on cell type ([10]; SW620, submicromolar doses): significant effects at submicromolar doses; off-target activity vs. 47 kinases [11]: inactive; effect on KLF5 protein levels ([1]; listed as ML264): significantly reduces KLF5 protein levels; also recorded: lowers KLF5 protein levels; sensitivity to cytotoxicity [12]: ML264-insensitive; Michael acceptor [13]: Michael acceptor: No
4 | > 100 | C[C@@H](NC(=O)/C=C/c1cccc(Cl)c1)C(=O)N(C)C1CCS(=O)(=O)CC1 [Compound 24] | –
5 | > 100 | CN(C(=O)CNC(=O)/C=C/c1cccc(S(=O)(=O)N(C)C)c1)C1CCS(=O)(=O)C1 (stereo not shown) [Compound 25] | –
6 | > 100 | O=C(/C=C/c1cccc(Cl)c1)NCC(=O)NC1CCS(=O)(=O)CC1 [Compound 26] | –
7 | > 100 | C[C@@H](NC(=O)/C=C/c1cccc(Cl)c1)C(=O)NC1CCS(=O)(=O)C1 (stereo partly shown) [Compound 27] | –
8 | > 100 | O=C(/C=C/c1cccc(Cl)c1)NCCC(=O)NC1CCS(=O)(=O)C1 (stereo not shown) [Compound 28] | –
9 | > 100 | CN(C(=O)CCNC(=O)/C=C/c1cccc(Cl)c1)C1CCS(=O)(=O)C1 (stereo not shown) [Compound 29] | –
10 | > 100 | C[C@@H](NC(=O)/C=C/c1cccc(Cl)c1)C(=O)N(C)C1CCS(=O)(=O)C1 (stereo partly shown) [Compound 30] | –
11 | > 100 | C[C@@H](NC(=O)/C=C/c1cccc(Cl)c1)C(=O)NC1CCS(=O)(=O)CC1 [Compound 31] | –
12 | > 100 | CN(C(=O)CNC(=O)c1cccc2c1OCCO2)C1CCS(=O)(=O)CC1 [Compound 32] | –
13 | > 100 | CN(C(=O)CNC(=O)c1cc2cc(Cl)ccc2[nH]1)C1CCS(=O)(=O)CC1 [Compound 33] | –
14 | > 100 | Cc1ccc(C2(C(=O)NCC(=O)N(C)C3CCS(=O)(=O)CC3)CC2)cc1 [Compound 34] | –
15 | > 100 | CN(C(=O)CNS(=O)(=O)c1cccc2ccccc12)C1CCS(=O)(=O)CC1 [Compound 35] | –
16 | > 100 | CN(C(=O)CNC(=O)Nc1ccc(Br)cc1Br)C1CCS(=O)(=O)CC1 [Compound 36] | –

Row | IC50 [14, 15] [µM] | Structure (SMILES) | other results
17 | > 100 | CN(C(=O)CNC(=O)c1cc2ccccc2o1)C1CCS(=O)(=O)CC1 [Compound 38] | –
18 | > 100 | CN(C(=O)CNC(=O)c1ccc2ccccc2n1)C1CCS(=O)(=O)CC1 [Compound 39] | –
19 | > 100 | CN(C(=O)CNC(=O)Cc1ccc2c(c1)OCO2)C1CCS(=O)(=O)CC1 [Compound 40] | –
20 | > 100 | CN(C(=O)CNC(=O)c1ccnn1-c1ccccc1)C1CCS(=O)(=O)CC1 [Compound 41] | –
21 | > 100 | CN(C(=O)CNC(=O)COCc1ccccc1)C1CCS(=O)(=O)CC1 [Compound 42] | –
22 | > 100 | COc1ccc(CC(=O)NCC(=O)N(C)C2CCS(=O)(=O)CC2)cc1 [Compound 43] | –
23 | > 100 | CN(C(=O)CNC(=O)C1CCc2ccccc2O1)C1CCS(=O)(=O)CC1 (stereo not shown) [Compound 44] | –
24 | > 100 | CN(C(=O)CNC(=O)c1coc2ccccc2c1=O)C1CCS(=O)(=O)CC1 [Compound 45] | –
25 | > 100 | CN(C(=O)CNC(=O)c1ccc2cc[nH]c2c1)C1CCS(=O)(=O)CC1 [Compound 46] | –
26 | > 100 | CN(C(=O)CNC(=O)c1ccc2ncsc2c1)C1CCS(=O)(=O)CC1 [Compound 47] | –
27 | > 100 | CN(C(=O)CNC(=O)c1cnc2ccc(Cl)cc2c1)C1CCS(=O)(=O)CC1 [Compound 48] | –
28 | > 100 | CN(C(=O)CNC(=O)c1ccsc1)C1CCS(=O)(=O)CC1 [Compound 49] | –
29 | > 100 | COc1cccc(CNC(=O)NCC(=O)N(C)C2CCS(=O)(=O)CC2)c1 [Compound 50] | –
30 | – | O=C(/C=C/c1cccc(Cl)c1)NCC(=O)N(C1CC1)C1CCS(=O)(=O)CC1 [Compound 52] | IC50 ([14]; DlD-1 4.9 cell line): > 100 µM
31 | 0.27 | CN(C(=O)COC(=O)/C=C/c1cccc([N+](=O)[O-])c1)C1CCS(=O)(=O)C1 (stereo not shown) [Compound 53C, reference compound] | EC50 ([5]; Homo sapiens): 1.51 µM
32 | – | O=C(/C=C/c1cccc(Cl)c1)NCC(=O)N(C1CC1)C1CCS(=O)(=O)CC1 [Compound 54] | EC50 ([5]; Homo sapiens): 0.39 µM; IC50 ([14]; DlD-1 4.9 cell line): 7.8 µM
